Test results taken from US20260183295A1, “METHODS AND COMPOSITIONS FOR TREATING CANCER” (Onconova Therapeutics, Inc., priority 2022, published 2026).

Assays:
Assay in all cases: CETSA-MS, MDA-MB-231 intact cells
Type in all cases: cell-based
Conditions in all cases: 2 μM and 20 μM
[1] = molecular target: T1, GSK3B (Homo sapiens, UniProt P49841)
T1 construct: endogenous in cells; host or cells: MDA-MB-231
Description: (§1) TNBC MDA-MB-231 cells were grown at 37° C. in 5% CO2 and suspended in warm media and split into 4 equal volumes. […] Cells were incubated and then pelleted. Following pelleting, the cells were washed, resuspended, and heated in a thermal gradient. Following heating, the samples were flash frozen and lysed in lysis buffer, agitated by vortex, and sonicated prior to centrifugation. The supernatant was collected and denaturation buffer added. Cold acetone was then added to the cell samples, and protein collected by centrifugation. Pellets were then washed twice with cold acetone and the washed pellets prior to labeling.
(§2) The intact cell protein samples and lysate protein samples were then digested and labeled for mass spectrometry analysis according to the manufacturer's recommended protocols. Digested and labeled protein samples were analyzed by mass spectrometry proteomic analysis and the resulting protein targets were analyzed and plotted.

[2] = molecular target: T2, SNX30 (Homo sapiens, UniProt Q5VWJ9)
T2 construct: endogenous in cells; host or cells: MDA-MB-231
Description: as §1, §2

[3] = molecular target: T3, CBX5 (Homo sapiens, UniProt P45973)
T3 construct: endogenous in cells; host or cells: MDA-MB-231
Description: as §1, §2

[4] = molecular target: T4, FUBP3 (Homo sapiens, UniProt Q96I24)
T4 construct: 148 targets unique to Compound 1 in MDA-MB-231 intact cells; endogenous in cells; host or cells: MDA-MB-231
T4 sequence (Q96I24 whole entry): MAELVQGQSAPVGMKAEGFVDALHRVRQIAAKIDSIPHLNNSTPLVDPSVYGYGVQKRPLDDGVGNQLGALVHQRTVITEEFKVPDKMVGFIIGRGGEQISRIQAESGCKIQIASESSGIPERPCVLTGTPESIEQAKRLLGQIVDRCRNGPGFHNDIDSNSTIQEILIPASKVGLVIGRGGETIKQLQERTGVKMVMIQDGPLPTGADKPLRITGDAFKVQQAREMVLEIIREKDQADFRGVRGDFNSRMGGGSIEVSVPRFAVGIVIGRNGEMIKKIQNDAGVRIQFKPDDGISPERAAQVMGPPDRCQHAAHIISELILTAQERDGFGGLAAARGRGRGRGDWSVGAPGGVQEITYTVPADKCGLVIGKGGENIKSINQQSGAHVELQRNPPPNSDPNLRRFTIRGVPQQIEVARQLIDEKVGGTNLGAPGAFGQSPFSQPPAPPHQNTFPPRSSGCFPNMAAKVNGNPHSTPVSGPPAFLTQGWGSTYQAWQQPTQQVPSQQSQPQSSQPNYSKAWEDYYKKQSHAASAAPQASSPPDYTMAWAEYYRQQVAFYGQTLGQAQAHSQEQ
Description: as §1, §2

[5] = molecular target: T5, PIK3C3 (Homo sapiens, UniProt Q8NEB9)
T5 construct: endogenous in cells; host or cells: MDA-MB-231
T5 sequence (Q8NEB9 whole entry): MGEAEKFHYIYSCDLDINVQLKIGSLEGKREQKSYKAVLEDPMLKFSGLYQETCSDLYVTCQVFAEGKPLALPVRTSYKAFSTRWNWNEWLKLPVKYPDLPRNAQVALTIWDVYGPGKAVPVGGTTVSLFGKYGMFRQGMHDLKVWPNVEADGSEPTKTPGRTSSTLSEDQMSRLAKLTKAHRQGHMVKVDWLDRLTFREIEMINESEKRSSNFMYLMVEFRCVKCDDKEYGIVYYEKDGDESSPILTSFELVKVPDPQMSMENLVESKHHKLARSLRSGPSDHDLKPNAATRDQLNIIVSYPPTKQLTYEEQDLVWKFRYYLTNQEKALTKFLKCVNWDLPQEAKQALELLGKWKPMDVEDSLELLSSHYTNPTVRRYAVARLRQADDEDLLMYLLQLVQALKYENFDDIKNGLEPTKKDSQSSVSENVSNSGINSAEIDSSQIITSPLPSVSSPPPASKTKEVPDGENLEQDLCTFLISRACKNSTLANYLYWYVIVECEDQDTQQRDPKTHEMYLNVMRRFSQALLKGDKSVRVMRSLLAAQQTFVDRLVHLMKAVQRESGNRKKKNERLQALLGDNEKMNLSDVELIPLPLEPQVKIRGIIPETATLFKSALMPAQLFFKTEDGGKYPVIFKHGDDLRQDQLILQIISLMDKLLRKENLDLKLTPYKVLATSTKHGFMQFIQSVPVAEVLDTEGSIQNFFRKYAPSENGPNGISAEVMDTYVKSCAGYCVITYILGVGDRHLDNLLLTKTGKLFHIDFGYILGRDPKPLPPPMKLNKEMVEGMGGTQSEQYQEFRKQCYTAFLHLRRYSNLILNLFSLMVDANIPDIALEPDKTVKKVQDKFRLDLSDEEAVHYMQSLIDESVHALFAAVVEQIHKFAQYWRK
T5 sequence (Q99570 2-1358 partner limits assumed): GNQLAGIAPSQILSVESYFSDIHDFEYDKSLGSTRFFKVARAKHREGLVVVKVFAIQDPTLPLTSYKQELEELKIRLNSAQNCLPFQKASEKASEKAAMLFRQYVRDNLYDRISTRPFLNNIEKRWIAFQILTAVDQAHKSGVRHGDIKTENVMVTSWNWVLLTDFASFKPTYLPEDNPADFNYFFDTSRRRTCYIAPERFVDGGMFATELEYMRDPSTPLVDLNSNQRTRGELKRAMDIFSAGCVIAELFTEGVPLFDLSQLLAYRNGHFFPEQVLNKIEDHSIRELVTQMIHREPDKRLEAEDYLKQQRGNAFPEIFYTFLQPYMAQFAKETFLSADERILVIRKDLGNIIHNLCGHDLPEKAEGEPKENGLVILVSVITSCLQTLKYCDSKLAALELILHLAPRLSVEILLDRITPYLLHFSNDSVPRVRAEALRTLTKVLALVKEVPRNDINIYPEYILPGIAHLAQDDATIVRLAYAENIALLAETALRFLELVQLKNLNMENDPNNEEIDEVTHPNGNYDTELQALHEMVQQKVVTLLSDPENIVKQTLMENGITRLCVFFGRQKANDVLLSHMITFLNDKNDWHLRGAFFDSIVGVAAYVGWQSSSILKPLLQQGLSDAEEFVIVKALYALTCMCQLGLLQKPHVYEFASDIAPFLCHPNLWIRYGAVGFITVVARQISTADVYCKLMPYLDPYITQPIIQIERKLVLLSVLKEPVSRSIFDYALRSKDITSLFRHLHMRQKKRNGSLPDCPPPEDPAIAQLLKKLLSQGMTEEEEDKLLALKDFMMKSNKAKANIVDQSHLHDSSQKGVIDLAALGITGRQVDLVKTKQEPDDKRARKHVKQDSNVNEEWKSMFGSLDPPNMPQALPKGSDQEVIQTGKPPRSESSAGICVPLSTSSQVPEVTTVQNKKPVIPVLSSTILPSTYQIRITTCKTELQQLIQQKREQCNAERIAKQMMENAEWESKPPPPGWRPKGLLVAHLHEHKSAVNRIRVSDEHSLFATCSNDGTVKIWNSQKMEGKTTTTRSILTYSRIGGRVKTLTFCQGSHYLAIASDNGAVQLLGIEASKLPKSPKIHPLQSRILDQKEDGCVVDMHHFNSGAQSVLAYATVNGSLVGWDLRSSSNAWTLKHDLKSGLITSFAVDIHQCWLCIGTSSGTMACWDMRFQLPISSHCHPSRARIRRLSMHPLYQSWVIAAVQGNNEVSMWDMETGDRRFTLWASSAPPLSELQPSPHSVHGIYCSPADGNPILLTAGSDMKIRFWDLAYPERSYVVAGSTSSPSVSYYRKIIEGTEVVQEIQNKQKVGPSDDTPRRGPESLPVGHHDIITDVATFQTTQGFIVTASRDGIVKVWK
Description: as §1, §2

[6] = molecular target: T6, LYN (Homo sapiens, UniProt P07948)
T6 construct: endogenous in cells; host or cells: MDA-MB-231
Description: as §1, §2

[7] = molecular target: T7, IGFBP7 (Homo sapiens, UniProt Q16270)
T7 construct: endogenous in cells; host or cells: MDA-MB-231
Description: as §1, §2

[8] = molecular target: T8, BOD1L1 (Homo sapiens, UniProt Q8NFC6)
T8 construct: endogenous in cells; host or cells: MDA-MB-231
Description: as §1, §2

[9] = molecular target: T9, CDK12 (Homo sapiens, UniProt Q9NYV4)
T9 construct: endogenous in cells; host or cells: MDA-MB-231
Description: as §1, §2

[10] = molecular target: T10, AAK1 (Homo sapiens, UniProt Q2M2I8)
T10 construct: endogenous in cells; host or cells: MDA-MB-231
Description: as §1, §2

[11] = molecular target: T11, MTG1 (Homo sapiens, UniProt Q9BT17)
T11 construct: endogenous in cells; host or cells: MDA-MB-231
Description: as §1, §2

[12] = molecular target: T12, RNF5 (Homo sapiens, UniProt Q99942)
T12 construct: endogenous in cells; host or cells: MDA-MB-231
Description: as §1, §2

[13] = molecular target: T13, GCAT (Homo sapiens, UniProt O75600)
T13 construct: 148 targets unique to Compound 1 in MDA-MB-231 intact cells; endogenous in cells; host or cells: MDA-MB-231
Description: as §1, §2

[14] = molecular target: T14, RRAS2 (Homo sapiens, UniProt P62070)
T14 construct: endogenous in cells; host or cells: MDA-MB-231
T14 sequence (P62070 whole entry): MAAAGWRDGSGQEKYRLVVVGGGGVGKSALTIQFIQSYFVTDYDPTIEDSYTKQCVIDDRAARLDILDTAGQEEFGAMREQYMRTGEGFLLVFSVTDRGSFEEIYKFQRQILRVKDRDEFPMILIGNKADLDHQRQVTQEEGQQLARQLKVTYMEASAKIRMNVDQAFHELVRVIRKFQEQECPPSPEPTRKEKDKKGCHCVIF
Description: as §1, §2

[15] = molecular target: T15, MICALL2 (Homo sapiens, UniProt Q8IY33)
T15 construct: endogenous in cells; host or cells: MDA-MB-231
Description: as §1, §2

[16] = molecular target: T16, JMY (Homo sapiens, UniProt Q8N9B5)
T16 construct: endogenous in cells; host or cells: MDA-MB-231
Description: as §1, §2

[17] = molecular target: T17, DDX21 (Homo sapiens, UniProt Q9NR30)
T17 construct: 148 targets unique to Compound 1 in MDA-MB-231 intact cells; endogenous in cells; host or cells: MDA-MB-231
Description: as §1, §2

[18] = molecular target: T18, BMP2K (Homo sapiens, UniProt Q9NSY1)
T18 construct: endogenous in cells; host or cells: MDA-MB-231
Description: as §1, §2

[19] = molecular target: T19, ESYT1 (Homo sapiens, UniProt Q9BSJ8)
T19 construct: 148 targets unique to Compound 1 in MDA-MB-231 intact cells; endogenous in cells; host or cells: MDA-MB-231
T19 sequence (Q9BSJ8 whole entry): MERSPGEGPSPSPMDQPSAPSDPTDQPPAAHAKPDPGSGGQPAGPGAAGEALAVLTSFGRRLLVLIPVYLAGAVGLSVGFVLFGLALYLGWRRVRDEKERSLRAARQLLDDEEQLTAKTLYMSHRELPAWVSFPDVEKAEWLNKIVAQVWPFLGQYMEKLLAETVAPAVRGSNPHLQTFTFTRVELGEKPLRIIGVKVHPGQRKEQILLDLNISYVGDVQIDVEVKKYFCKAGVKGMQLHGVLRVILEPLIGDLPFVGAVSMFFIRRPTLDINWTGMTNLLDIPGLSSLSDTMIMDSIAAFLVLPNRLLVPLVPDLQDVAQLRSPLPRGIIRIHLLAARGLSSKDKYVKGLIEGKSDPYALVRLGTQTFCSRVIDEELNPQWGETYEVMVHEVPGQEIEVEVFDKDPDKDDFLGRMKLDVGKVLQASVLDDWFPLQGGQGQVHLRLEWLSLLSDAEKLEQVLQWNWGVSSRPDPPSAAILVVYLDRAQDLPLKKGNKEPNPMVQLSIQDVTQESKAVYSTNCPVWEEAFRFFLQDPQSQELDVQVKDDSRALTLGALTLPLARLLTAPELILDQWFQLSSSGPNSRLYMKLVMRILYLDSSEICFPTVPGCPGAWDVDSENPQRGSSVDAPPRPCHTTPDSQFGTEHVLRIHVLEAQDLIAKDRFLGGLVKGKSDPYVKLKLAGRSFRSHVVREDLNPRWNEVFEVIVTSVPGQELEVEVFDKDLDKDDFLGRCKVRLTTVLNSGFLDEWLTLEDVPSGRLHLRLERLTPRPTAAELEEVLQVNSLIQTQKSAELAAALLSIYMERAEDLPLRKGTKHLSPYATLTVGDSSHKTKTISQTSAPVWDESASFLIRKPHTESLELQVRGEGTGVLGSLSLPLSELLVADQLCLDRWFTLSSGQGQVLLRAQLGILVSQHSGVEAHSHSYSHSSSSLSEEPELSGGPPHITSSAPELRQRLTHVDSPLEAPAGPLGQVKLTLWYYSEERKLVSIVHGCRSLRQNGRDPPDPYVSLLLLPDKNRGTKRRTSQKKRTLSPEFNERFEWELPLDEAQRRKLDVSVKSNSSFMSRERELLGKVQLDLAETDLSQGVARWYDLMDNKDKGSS
Description: as §1, §2

[20] = molecular target: T20, DBNDD2 (Homo sapiens, UniProt Q9BQY9)
T20 construct: 148 targets unique to Compound 1 in MDA-MB-231 intact cells; endogenous in cells; host or cells: MDA-MB-231
T20 sequence (Q9BQY9 whole entry): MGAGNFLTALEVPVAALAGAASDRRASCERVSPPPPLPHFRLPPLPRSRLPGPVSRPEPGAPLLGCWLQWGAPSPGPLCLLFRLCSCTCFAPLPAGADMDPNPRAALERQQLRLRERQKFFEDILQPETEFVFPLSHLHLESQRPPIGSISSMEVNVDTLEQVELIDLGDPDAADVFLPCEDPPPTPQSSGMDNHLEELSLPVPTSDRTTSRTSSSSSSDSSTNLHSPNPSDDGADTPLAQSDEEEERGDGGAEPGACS
Description: as §1, §2

[21] = molecular target: T21, CSNK2A2 (Homo sapiens, UniProt P19784)
T21 construct: 148 targets unique to Compound 1 in MDA-MB-231 intact cells; endogenous in cells; host or cells: MDA-MB-231
Description: as §1, §2

[22] = molecular target: T22, COL2A1 (Homo sapiens, UniProt P02458)
T22 construct: endogenous in cells; host or cells: MDA-MB-231
Description: as §1, §2

[23] = molecular target: T23, GSKIP (Homo sapiens, UniProt Q9P0R6)
T23 construct: 148 targets unique to Compound 1 in MDA-MB-231 intact cells; endogenous in cells; host or cells: MDA-MB-231
Description: as §1, §2

[24] = molecular target: T24, LAMC1 (Homo sapiens, UniProt P11047)
T24 construct: endogenous in cells; host or cells: MDA-MB-231
Description: as §1, §2

[25] = molecular target: T25, FOS (Homo sapiens, UniProt P01100)
T25 construct: endogenous in cells; host or cells: MDA-MB-231
Description: as §1, §2

[26] = molecular target: T26, ANP32B (Homo sapiens, UniProt Q92688)
T26 construct: endogenous in cells; host or cells: MDA-MB-231
Description: as §1, §2

[27] = molecular target: T27, LEO1 (Homo sapiens, UniProt Q8WVC0)
T27 construct: endogenous in cells; host or cells: MDA-MB-231
Description: as §1, §2

[28] = molecular target: T28, MARK2 (Homo sapiens, UniProt Q7KZI7)
T28 construct: endogenous in cells; host or cells: MDA-MB-231
Description: as §1, §2

[29] = molecular target: T29, CDC5L (Homo sapiens, UniProt Q99459)
T29 construct: endogenous in cells; host or cells: MDA-MB-231
Description: as §1, §2

[30] = molecular target: T30, LRRC59 (Homo sapiens, UniProt Q96AG4)
T30 construct: endogenous in cells; host or cells: MDA-MB-231
T30 sequence (Q96AG4 whole entry): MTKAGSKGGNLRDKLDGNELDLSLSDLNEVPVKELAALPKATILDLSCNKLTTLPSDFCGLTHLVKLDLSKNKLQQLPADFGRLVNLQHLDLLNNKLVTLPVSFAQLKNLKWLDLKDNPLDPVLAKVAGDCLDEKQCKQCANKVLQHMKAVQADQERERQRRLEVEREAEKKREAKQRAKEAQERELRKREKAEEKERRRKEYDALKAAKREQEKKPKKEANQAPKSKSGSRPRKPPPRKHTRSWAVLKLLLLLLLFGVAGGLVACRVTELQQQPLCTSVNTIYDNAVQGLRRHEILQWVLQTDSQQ
Description: as §1, §2

[31] = molecular target: T31, UFL1 (Homo sapiens, UniProt O94874)
T31 construct: endogenous in cells; host or cells: MDA-MB-231
Description: as §1, §2

[32] = molecular target: T32, RBM34 (Homo sapiens, UniProt P42696)
T32 construct: endogenous in cells; host or cells: MDA-MB-231
Description: as §1, §2

[33] = molecular target: T33, ELAVL1 (Homo sapiens, UniProt Q15717)
T33 construct: 148 targets unique to Compound 1 in MDA-MB-231 intact cells; endogenous in cells; host or cells: MDA-MB-231
Description: as §1, §2

[34] = molecular target: T34, AVEN (Homo sapiens, UniProt Q9NQS1)
T34 construct: endogenous in cells; host or cells: MDA-MB-231
T34 sequence (Q9NQS1 whole entry): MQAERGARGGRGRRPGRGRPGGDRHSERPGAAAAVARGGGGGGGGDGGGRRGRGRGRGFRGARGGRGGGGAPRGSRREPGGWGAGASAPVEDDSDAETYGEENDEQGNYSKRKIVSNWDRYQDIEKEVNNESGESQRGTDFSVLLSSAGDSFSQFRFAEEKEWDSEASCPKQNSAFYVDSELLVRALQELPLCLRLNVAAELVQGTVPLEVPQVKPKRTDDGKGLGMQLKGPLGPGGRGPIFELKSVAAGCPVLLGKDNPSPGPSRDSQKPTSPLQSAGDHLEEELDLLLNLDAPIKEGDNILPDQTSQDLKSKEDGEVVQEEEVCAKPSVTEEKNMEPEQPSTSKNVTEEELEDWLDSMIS
Description: as §1, §2

[35] = molecular target: T35, PIP4K2B (Homo sapiens, UniProt P78356)
T35 construct: endogenous in cells; host or cells: MDA-MB-231
Description: as §1, §2

[36] = molecular target: T36, MPHOSPH8 (Homo sapiens, UniProt Q99549)
T36 construct: endogenous in cells; host or cells: MDA-MB-231
Description: as §1, §2

CN1CCN(c2ccc(Nc3ncc4cc(C#N)c(=O)n(C5CCCC5)c4n3)cc2)CC1 [Compound 1, 8-cyclopentyl-2-((4-(4-methylpiperazin-1-yl)phenyl)amino)-7-oxo-7,8-dihydropyrido[2,3-d]pyrimidine-6-carbonitrile]
Group (CETSA-MS thermal shift) [1]: Stabilization | Group (CETSA-MS thermal shift) [2]: Destabilization | Group (CETSA-MS thermal shift) [3]: Stabilization | Group (CETSA-MS thermal shift) [4]: Stabilization | Group (CETSA-MS thermal shift) [5]: Stabilization | Group (CETSA-MS thermal shift) [6]: Destabilization | Group (CETSA-MS thermal shift) [7]: Stabilization | Group (CETSA-MS thermal shift) [8]: Destabilization | Group (CETSA-MS thermal shift) [9]: Destabilization | Group (CETSA-MS thermal shift) [10]: Stabilization | Group (CETSA-MS thermal shift) [11]: Stabilization | Group (CETSA-MS thermal shift) [12]: Stabilization | Group (CETSA-MS thermal shift) [13]: Stabilization | Group (CETSA-MS thermal shift) [14]: Stabilization | Group (CETSA-MS thermal shift) [15]: Destabilization | Group (CETSA-MS thermal shift) [16]: Stabilization | Group (CETSA-MS thermal shift) [17]: Stabilization | Group (CETSA-MS thermal shift) [18]: Stabilization | Group (CETSA-MS thermal shift) [19]: Stabilization | Group (CETSA-MS thermal shift) [20]: Stabilization | Group (CETSA-MS thermal shift) [21]: Stabilization | Group (CETSA-MS thermal shift) [22]: Stabilization | Group (CETSA-MS thermal shift) [23]: Stabilization | Group (CETSA-MS thermal shift) [24]: Stabilization | Group (CETSA-MS thermal shift) [25]: Destabilization | Group (CETSA-MS thermal shift) [26]: Destabilization | Group (CETSA-MS thermal shift) [27]: Stabilization | Group (CETSA-MS thermal shift) [28]: Destabilization | Group (CETSA-MS thermal shift) [29]: Stabilization | Group (CETSA-MS thermal shift) [30]: Stabilization | Group (CETSA-MS thermal shift) [31]: Stabilization | Group (CETSA-MS thermal shift) [32]: Stabilization | Group (CETSA-MS thermal shift) [33]: Stabilization | Group (CETSA-MS thermal shift) [34]: Destabilization | Group (CETSA-MS thermal shift) [35]: Stabilization | Group (CETSA-MS thermal shift) [36]: Stabilization
